Measurements reported in article PMC7827406, “Structure–Activity Relationship (SAR) Study of Spautin-1 to Entail the Discovery of Novel NEK4 Inhibitors” (International Journal of Molecular Sciences, 2021).
Like-named read-outs stand apart in the source and are kept apart here.

Assays:
Test in all cases: biochemical
Parameters in all cases: Eurofins KinaseProfiler full panel at Km ATP, residual kinase activity (%) relative to DMSO
CaMKIIβ(h) = target: T1, CaMKIIβ(h) (Homo sapiens, UniProt Q13554)
T1 construct: gene CAMK2B
T1 sequence (Q13554 whole entry): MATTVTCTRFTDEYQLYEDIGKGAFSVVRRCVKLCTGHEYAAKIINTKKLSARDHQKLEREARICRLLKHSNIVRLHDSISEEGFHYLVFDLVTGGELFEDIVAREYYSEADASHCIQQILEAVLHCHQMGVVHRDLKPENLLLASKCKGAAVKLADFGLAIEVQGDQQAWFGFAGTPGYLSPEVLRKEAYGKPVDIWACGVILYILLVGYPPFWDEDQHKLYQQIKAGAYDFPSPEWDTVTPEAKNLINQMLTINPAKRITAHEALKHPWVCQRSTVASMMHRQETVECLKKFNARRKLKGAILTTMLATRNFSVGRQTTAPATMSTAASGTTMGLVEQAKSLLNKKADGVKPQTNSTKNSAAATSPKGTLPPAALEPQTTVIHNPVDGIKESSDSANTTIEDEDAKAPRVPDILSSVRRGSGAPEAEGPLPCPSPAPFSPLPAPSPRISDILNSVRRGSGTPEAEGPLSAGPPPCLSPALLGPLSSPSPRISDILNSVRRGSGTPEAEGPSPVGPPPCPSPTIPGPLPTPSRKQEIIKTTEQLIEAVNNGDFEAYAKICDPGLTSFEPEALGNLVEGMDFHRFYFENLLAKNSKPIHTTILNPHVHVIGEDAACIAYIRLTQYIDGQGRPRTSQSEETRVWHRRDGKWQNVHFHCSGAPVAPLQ
Outline: (§1)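 Radiometric kinase activity assays were run with ATP at Km and compounds at 10 µM, and remaining activity (%) was reported. A separate competitive binding screen measured DNA-tagged kinase displaced from immobilized active-site ligands by qPCR, giving percent kinase still bound at 10 µM compound in DMSO.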

EphA7(h) = EphA7(h) (Homo sapiens, UniProt Q15375)
Outline: as §1

CDKL3(h) = CDKL3(h) (Homo sapiens, UniProt Q8IVW4)
CDKL3(h), sequence (Q8IVW4 whole entry): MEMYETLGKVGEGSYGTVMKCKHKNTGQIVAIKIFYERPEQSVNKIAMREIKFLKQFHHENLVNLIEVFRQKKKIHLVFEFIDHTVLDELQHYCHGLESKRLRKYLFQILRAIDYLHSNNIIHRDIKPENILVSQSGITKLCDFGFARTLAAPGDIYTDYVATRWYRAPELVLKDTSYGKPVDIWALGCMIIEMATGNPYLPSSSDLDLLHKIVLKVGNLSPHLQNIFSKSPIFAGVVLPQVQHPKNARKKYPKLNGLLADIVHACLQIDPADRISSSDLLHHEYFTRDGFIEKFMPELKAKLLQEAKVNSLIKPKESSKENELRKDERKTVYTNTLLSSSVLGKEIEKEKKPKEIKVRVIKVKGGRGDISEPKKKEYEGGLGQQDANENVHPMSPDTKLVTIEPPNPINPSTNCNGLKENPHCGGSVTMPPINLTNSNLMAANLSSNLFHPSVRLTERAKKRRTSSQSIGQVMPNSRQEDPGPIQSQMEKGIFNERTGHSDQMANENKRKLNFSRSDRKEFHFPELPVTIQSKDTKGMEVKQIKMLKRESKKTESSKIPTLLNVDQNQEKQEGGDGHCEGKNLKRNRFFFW
Outline: as §1

Hck(h) activated = Hck(h) activated (Homo sapiens, UniProt P08631)
Outline: as §1

TLK1(h) = target: T2, TLK1(h) (Homo sapiens, UniProt Q9UKI8)
T2 sequence (Q9UKI8 1-766): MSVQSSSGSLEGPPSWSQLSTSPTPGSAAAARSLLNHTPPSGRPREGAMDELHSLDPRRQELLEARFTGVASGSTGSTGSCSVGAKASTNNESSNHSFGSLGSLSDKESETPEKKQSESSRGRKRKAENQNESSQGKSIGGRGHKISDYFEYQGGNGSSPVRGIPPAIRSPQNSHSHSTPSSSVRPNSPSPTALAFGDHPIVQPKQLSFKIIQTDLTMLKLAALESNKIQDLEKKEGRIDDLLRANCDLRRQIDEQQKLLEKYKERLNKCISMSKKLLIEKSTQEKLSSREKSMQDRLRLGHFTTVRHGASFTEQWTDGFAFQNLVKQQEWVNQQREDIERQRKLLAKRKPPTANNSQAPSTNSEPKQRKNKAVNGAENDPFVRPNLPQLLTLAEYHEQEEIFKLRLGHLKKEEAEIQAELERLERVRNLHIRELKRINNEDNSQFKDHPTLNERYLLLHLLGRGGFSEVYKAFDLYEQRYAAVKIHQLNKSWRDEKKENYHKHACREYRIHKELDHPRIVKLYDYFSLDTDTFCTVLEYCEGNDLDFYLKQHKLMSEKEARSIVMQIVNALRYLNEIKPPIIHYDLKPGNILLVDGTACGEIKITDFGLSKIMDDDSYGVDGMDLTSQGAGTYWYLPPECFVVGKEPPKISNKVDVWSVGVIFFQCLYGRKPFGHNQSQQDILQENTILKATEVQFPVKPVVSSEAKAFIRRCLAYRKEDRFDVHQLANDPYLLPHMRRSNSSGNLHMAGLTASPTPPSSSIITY
Outline: as §1

Arg(h) = target: T3, Arg(h) (Homo sapiens, UniProt P42684)
T3 construct: gene ABL2
T3 sequence (P42684 whole entry): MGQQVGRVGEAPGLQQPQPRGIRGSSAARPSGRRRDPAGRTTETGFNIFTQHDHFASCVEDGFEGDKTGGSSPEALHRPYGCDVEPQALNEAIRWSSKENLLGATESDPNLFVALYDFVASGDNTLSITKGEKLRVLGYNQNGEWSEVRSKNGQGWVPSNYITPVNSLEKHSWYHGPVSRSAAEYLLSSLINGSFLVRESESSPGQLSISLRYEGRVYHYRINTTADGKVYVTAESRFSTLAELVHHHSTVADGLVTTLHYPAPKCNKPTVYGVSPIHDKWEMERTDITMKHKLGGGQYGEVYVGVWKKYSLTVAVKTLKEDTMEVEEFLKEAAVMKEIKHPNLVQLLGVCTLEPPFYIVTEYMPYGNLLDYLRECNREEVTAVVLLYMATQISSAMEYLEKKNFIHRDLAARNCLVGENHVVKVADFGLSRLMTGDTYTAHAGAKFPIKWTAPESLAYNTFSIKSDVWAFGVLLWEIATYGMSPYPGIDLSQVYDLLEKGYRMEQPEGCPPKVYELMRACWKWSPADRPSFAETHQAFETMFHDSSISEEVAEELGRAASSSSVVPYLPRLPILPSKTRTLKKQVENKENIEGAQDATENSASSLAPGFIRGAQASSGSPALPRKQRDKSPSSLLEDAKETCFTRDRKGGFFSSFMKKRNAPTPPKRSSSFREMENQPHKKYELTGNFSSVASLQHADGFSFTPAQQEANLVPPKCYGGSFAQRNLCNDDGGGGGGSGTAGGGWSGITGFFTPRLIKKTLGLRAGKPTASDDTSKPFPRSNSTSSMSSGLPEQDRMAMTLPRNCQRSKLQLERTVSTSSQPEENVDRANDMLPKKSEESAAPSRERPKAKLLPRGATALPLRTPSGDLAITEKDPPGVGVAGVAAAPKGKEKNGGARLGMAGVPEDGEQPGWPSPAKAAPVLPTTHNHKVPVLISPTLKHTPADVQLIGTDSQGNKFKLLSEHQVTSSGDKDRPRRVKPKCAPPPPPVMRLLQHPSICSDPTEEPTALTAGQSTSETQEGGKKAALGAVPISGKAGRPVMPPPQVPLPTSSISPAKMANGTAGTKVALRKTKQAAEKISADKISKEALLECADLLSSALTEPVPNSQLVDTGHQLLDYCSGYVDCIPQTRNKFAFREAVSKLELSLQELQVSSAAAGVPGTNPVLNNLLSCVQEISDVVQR
Outline: as §1

EphA4(h) = EphA4(h) (Homo sapiens, UniProt P54764)
EphA4(h), sequence (P54764 whole entry): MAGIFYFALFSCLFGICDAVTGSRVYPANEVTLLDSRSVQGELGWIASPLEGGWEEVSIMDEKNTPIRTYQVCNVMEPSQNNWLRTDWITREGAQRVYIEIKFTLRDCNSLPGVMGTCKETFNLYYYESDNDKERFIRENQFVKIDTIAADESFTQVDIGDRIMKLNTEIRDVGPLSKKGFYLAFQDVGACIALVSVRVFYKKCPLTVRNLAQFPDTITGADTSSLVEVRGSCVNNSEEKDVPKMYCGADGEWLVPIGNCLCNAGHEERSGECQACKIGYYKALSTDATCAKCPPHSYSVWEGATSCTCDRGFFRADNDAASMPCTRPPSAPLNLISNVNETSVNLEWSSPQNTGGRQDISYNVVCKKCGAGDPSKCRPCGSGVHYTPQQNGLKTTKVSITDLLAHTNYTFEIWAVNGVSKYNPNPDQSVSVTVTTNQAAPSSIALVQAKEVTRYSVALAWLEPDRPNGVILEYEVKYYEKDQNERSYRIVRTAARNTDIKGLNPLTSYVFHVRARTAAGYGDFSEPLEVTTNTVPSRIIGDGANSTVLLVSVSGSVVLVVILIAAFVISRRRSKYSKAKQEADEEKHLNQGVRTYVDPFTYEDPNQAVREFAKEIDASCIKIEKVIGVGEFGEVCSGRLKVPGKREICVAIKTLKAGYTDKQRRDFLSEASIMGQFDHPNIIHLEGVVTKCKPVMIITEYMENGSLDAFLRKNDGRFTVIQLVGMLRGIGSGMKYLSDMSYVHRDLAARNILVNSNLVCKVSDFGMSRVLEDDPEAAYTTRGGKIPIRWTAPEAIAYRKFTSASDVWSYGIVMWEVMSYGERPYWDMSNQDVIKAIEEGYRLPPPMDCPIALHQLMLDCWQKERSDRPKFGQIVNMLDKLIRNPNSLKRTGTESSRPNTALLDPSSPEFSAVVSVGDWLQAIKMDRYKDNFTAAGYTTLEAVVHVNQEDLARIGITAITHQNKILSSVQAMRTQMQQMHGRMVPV
Outline: as §1

LIMK1(h) = LIMK1(h) (Homo sapiens, UniProt P53667)
LIMK1(h), sequence (P53667 whole entry): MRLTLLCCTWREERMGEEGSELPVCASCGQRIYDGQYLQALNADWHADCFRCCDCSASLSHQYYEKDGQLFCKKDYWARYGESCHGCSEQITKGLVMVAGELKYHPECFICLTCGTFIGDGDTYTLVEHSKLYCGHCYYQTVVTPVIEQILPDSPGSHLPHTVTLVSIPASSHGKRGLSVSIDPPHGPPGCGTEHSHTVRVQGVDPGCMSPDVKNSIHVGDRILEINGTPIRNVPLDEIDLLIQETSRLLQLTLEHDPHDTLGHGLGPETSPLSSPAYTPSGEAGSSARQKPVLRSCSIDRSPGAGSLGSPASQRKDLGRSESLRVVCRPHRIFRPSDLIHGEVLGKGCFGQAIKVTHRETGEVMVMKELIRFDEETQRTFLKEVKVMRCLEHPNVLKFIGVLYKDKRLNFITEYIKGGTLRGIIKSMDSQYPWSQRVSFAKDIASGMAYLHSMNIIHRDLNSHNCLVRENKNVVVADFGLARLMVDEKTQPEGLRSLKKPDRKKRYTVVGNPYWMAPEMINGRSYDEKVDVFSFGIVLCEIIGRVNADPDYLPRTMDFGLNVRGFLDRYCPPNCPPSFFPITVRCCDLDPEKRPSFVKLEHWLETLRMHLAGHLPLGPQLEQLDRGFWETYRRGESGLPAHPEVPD
Outline: as §1

PAK1(h) = PAK1(h) (Homo sapiens, UniProt Q13153)
Outline: as §1

CLK1(h) = CLK1(h) (Homo sapiens, UniProt P49759)
CLK1(h), sequence (P49759 whole entry): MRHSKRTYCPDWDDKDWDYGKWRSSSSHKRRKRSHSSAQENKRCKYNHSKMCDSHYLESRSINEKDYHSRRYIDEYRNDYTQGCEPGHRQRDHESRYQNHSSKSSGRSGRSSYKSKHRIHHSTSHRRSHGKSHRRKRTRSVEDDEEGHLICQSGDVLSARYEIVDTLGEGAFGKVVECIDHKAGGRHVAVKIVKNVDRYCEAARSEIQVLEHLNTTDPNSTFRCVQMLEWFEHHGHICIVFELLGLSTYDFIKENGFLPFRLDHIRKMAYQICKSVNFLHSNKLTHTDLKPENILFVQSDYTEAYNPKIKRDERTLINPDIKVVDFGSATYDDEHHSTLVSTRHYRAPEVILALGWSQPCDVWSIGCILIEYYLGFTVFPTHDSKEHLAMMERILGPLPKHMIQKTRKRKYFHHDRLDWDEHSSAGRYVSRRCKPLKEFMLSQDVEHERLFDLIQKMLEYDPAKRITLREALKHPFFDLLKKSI
Outline: as §1

Pim-3(h) = target: T4, Pim-3(h) (Homo sapiens, UniProt Q86V86)
T4 construct: gene PIM3
Outline: as §1

[1] = read-out: Residual activity (%) Spautin-1 5aa
[2] = read-out: Residual activity (%) 5as
[3] = read-out: Residual activity (%) 5at
[4] = read-out: Residual activity (%) 5ay

**Q.** For Fc1ccc(CNc2ncnc3ccc(F)cc23)cc1 [5aa, 6-Fluoro-N-(4-fluorobenzyl)-4-Quinazolinamine], which remaining activity at 10 µM (CaMKIIβ(h); [1]) is on record?
**A.** The remaining activity at 10 µM was 81%.

**Q.** What about the remaining activity at 10 µM (EphA7(h); [1]) of the same molecule?
**A.** Its remaining activity at 10 µM is 100%.

**Q.** And the remaining activity at 10 µM (CDKL3(h); [1])?
**A.** The remaining activity at 10 µM was 77%.

**Q.** And the remaining activity at 10 µM (Hck(h) activated; [1])?
**A.** Its remaining activity at 10 µM is 85%.

**Q.** What about the remaining activity at 10 µM (TLK1(h); [1]) of the same molecule?
**A.** The remaining activity at 10 µM was 112%.

**Q.** What about the remaining activity at 10 µM (Arg(h); [1]) of the same molecule?
**A.** The remaining activity at 10 µM was 79%.

**Q.** What about the remaining activity at 10 µM (EphA4(h); [1]) of the same molecule?
**A.** The remaining activity at 10 µM was 89%.

**Q.** What about the remaining activity at 10 µM (LIMK1(h); [1]) of the same molecule?
**A.** The remaining activity at 10 µM was 97%.

**Q.** What about the remaining activity at 10 µM (PAK1(h); [1]) of the same molecule?
**A.** Its remaining activity at 10 µM is 94%.

**Q.** What about the remaining activity at 10 µM (CLK1(h); [1]) of the same molecule?
**A.** The remaining activity at 10 µM was 23%.

**Q.** And the remaining activity at 10 µM (Pim-3(h); [1])?
**A.** The remaining activity at 10 µM was 123%.

**Q.** What does the source list for Fc1ccc(CCNc2ncnc3ccc(F)cc23)cc1 [5as, 6-Fluoro-N-[2-(4-Fluorophenyl)Ethyl]-4-Quinazolinamine]?
**A.** remaining activity at 10 µM (CaMKIIβ(h); [2]): 91%; remaining activity at 10 µM (EphA7(h); [2]): 84%; remaining activity at 10 µM (CDKL3(h); [2]): 65%; remaining activity at 10 µM (Hck(h) activated; [2]): 85%; remaining activity at 10 µM (TLK1(h); [2]): 112%; remaining activity at 10 µM (Arg(h); [2]): 82%; remaining activity at 10 µM (EphA4(h); [2]): 83%; remaining activity at 10 µM (LIMK1(h); [2]): 76%; remaining activity at 10 µM (PAK1(h); [2]): 81%; remaining activity at 10 µM (CLK1(h); [2]): 28%; remaining activity at 10 µM (Pim-3(h); [2]): 92%

**Q.** Fc1ccc2ncnc(NCCc3ccc(Cl)cc3)c2c1 [5at, N-[2-(4-Chlorophenyl)Ethyl]-6-Fluoro-4-Quinazolinamine] was tested. Which remaining activity at 10 µM (CaMKIIβ(h); [3]) did it give?
**A.** The remaining activity at 10 µM was 91%.

**Q.** And the remaining activity at 10 µM (EphA7(h); [3])?
**A.** The remaining activity at 10 µM was 87%.

**Q.** And the remaining activity at 10 µM (CDKL3(h); [3])?
**A.** Its remaining activity at 10 µM is 71%.

**Q.** What about the remaining activity at 10 µM (Hck(h) activated; [3]) of the same molecule?
**A.** The remaining activity at 10 µM was 108%.

**Q.** And the remaining activity at 10 µM (TLK1(h); [3])?
**A.** Its remaining activity at 10 µM is 97%.

**Q.** What about the remaining activity at 10 µM (Arg(h); [3]) of the same molecule?
**A.** The remaining activity at 10 µM was 81%.

**Q.** And the remaining activity at 10 µM (EphA4(h); [3])?
**A.** Its remaining activity at 10 µM is 80%.

**Q.** And the remaining activity at 10 µM (LIMK1(h); [3])?
**A.** The remaining activity at 10 µM was 72%.

**Q.** And the remaining activity at 10 µM (PAK1(h); [3])?
**A.** The remaining activity at 10 µM was 90%.

**Q.** And the remaining activity at 10 µM (CLK1(h); [3])?
**A.** Its remaining activity at 10 µM is 28%.

**Q.** What about the remaining activity at 10 µM (Pim-3(h); [3]) of the same molecule?
**A.** The remaining activity at 10 µM was 97%.

**Q.** COc1ccc2ncnc(Nc3cccc(F)c3)c2c1 [5ay, N-(3-Fluorophenyl)-6-Methoxy-4-Quinazolinamine] was tested. Which remaining activity at 10 µM (CaMKIIβ(h); [4]) did it give?
**A.** The remaining activity at 10 µM was 72%.

**Q.** What about the remaining activity at 10 µM (EphA7(h); [4]) of the same molecule?
**A.** Its remaining activity at 10 µM is 90%.

**Q.** What about the remaining activity at 10 µM (CDKL3(h); [4]) of the same molecule?
**A.** The remaining activity at 10 µM was 29%.

**Q.** And the remaining activity at 10 µM (Hck(h) activated; [4])?
**A.** The remaining activity at 10 µM was 46%.

**Q.** What about the remaining activity at 10 µM (TLK1(h); [4]) of the same molecule?
**A.** The remaining activity at 10 µM was 107%.

**Q.** What about the remaining activity at 10 µM (Arg(h); [4]) of the same molecule?
**A.** The remaining activity at 10 µM was 73%.

**Q.** And the remaining activity at 10 µM (EphA4(h); [4])?
**A.** Its remaining activity at 10 µM is 86%.

**Q.** And the remaining activity at 10 µM (LIMK1(h); [4])?
**A.** Its remaining activity at 10 µM is 64%.

**Q.** What about the remaining activity at 10 µM (PAK1(h); [4]) of the same molecule?
**A.** Its remaining activity at 10 µM is 97%.

**Q.** And the remaining activity at 10 µM (CLK1(h); [4])?
**A.** The remaining activity at 10 µM was 14%.

**Q.** And the remaining activity at 10 µM (Pim-3(h); [4])?
**A.** The remaining activity at 10 µM was 96%.
